For the test, the system named is CD2F1 mice, L1210 leukemia ip, survival T/C. As to the kind of experiment: NCI In Vivo Anticancer Drug Screen. Data for tumor model L1210 Leukemia (intraperitoneal) in CD2F1 (CDF1) mice. The settings on record: higher = longer survival. In outline:
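Compound-dosed mice with transplantable tumor versus matched vehicle controls; endpoint ratio T/C reported.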

The mark [1] stands for this setting: endpoint: mean survival time, dose: 100.0 mg/kg/injection, schedule: Q01DX009 (ip), vehicle: saline.
Setting [2] is: endpoint: mean survival time, dose: 200.0 mg/kg/injection, schedule: Q01DX009 (ip), vehicle: saline.
[3] abbreviates: endpoint: mean survival time, dose: 100.0 mg/kg/injection, schedule: Q01DX009 (ip), vehicle: saline with Tween-80.
Where [4] appears, read: endpoint: mean survival time, dose: 100.0 mg/kg/injection, schedule: Q04DX003 (ip), vehicle: saline with Tween-80.
[5] abbreviates: endpoint: mean survival time, dose: 200.0 mg/kg/injection, schedule: Q01DX009 (ip), vehicle: saline with Tween-80.
Where [6] appears, read: endpoint: mean survival time, dose: 200.0 mg/kg/injection, schedule: Q04DX003 (ip), vehicle: saline with Tween-80.
Setting [7] is: endpoint: mean survival time, dose: 400.0 mg/kg/injection, schedule: Q01DX009 (ip), vehicle: saline with Tween-80.
The mark [8] stands for this setting: endpoint: mean survival time, dose: 400.0 mg/kg/injection, schedule: Q04DX003 (ip), vehicle: saline with Tween-80.

Toxic doses and inconclusive results are not listed.

In the case of `COC(=O)C1C(O)C(C)C(O)OC1C(C)C(O)C(C)/C=C\C=C(/C)C(=O)Nc1c(C)c(OC(C)=O)c2c(c1O)C(=O)C(C)=C1OCOC(/C(C)=C/C(C)=O)=C12` (stereo not drawn), the T/C reads like this: under setting [1], 97 % of control; under setting [2], 101 % of control.
For `Clc1ccc(CSCc2ccc(Cl)cc2Cl)c(Cl)c1`, the T/C under setting [3] is 96 % of control; the T/C under setting [4] is 100 % of control; the T/C under setting [5] is 100 % of control; the T/C under setting [6] is 104 % of control; the T/C under setting [7] is 98 % of control; the T/C under setting [8] was 100 % of control.
With `COC(=O)/C=C\n1cnc2ccccc21`, the T/C by setting is: (endpoint: mean survival time, dose: 75.0 mg/kg/injection, schedule: Q01DX009 (ip), vehicle: other) 95 % of control; (endpoint: mean survival time, dose: 150.0 mg/kg/injection, schedule: Q01DX009 (ip), vehicle: other) 101 % of control; (endpoint: mean survival time, dose: 300.0 mg/kg/injection, schedule: Q01DX009 (ip), vehicle: other) 110 % of control.
As to `CCOC(=O)CCC(=O)CC(O)(C(F)(F)F)C(F)(F)Cl` (stereo not drawn), the T/C was 104 % of control under setting [1]; 86 % of control under setting [4]; 98 % of control under setting [2]; 103 % of control under setting [6]; 107 % of control (endpoint: mean survival time, dose: 400.0 mg/kg/injection, schedule: Q01DX009 (ip), vehicle: saline); 96 % of control under setting [8].
As for `Nc1nc([Se]c2nc(N)nc3c2ncn3C2OC(CO)C(O)C2O)c2ncn(C3OC(CO)C(O)C3O)c2n1` (stereo not drawn), the T/C reads like this: (endpoint: median survival time, dose: 36.0 mg/kg/injection, schedule: Q01DX005 (ip), vehicle: distilled water + Tween-80) 156 % of control; (endpoint: median survival time, dose: 60.0 mg/kg/injection, schedule: Q01DX005 (ip), vehicle: distilled water + Tween-80) 162 % of control.
Regarding `COc1cc2c(cc1Oc1c(O)c(OC)cc3c1C(C)N(C)CC3)C(C)N(C)CC2` (stereo not drawn), where the note is “endpoint: mean survival time, dose: 75.0 mg/kg/injection, schedule: Q01DX001 (ip), vehicle: saline”, the T/C was 101 % of control.
With `CN(C(=O)Nc1cccc([N+](=O)[O-])c1)c1ccccc1`, the T/C is, setting by setting: (endpoint: mean survival time, dose: 100.0 mg/kg/injection, schedule: Q01DX001 (ip), vehicle: saline) 102 % of control; (endpoint: mean survival time, dose: 200.0 mg/kg/injection, schedule: Q01DX001 (ip), vehicle: saline) 98 % of control; (endpoint: mean survival time, dose: 400.0 mg/kg/injection, schedule: Q01DX001 (ip), vehicle: saline) 98 % of control.
Consider `c1ccc(CCc2ccnc3ccccc23)cc1`, for which the T/C was 94 % of control (endpoint: mean survival time, dose: 50.0 mg/kg/injection, schedule: Q01DX009 (ip), vehicle: saline with Tween-80); 98 % of control under setting [3]; 100 % of control under setting [5].
For the molecule `C=NNC(=O)c1ccncc1`, the T/C runs as follows: under setting [3], 100 % of control; under setting [5], 101 % of control; under setting [7], 95 % of control.
For `CCCN(CCC)CCCOC(=O)c1ccc([N+](=O)[O-])cc1`, the T/C reads like this: (endpoint: mean survival time, dose: 100.0 mg/kg/injection, schedule: Q04DX003 (ip), vehicle: saline) 97 % of control; (endpoint: mean survival time, dose: 200.0 mg/kg/injection, schedule: Q04DX003 (ip), vehicle: saline) 92 % of control; (endpoint: mean survival time, dose: 400.0 mg/kg/injection, schedule: Q04DX003 (ip), vehicle: saline) 94 % of control.
Consider `CC1OC(OC(=O)c2ccc([N+](=O)[O-])cc2)CC(NC(=O)C(F)(F)F)C1OC(=O)c1ccc([N+](=O)[O-])cc1` (stereo not drawn), for which the T/C reads like this: (endpoint: mean survival time, dose: 25.0 mg/kg/injection, schedule: Q01DX005 (ip), vehicle: Klucel (hydroxypropylcellulose) (HPC)) 94 % of control; (endpoint: mean survival time, dose: 50.0 mg/kg/injection, schedule: Q01DX005 (ip), vehicle: Klucel (hydroxypropylcellulose) (HPC)) 89 % of control.
Take `CCOC(=O)c1cn(C)c2c1C(O)=C(C(=O)OC)CC(=O)N2`: the T/C by setting is: (endpoint: median survival time, dose: 25.0 mg/kg/injection, schedule: Q01DX009 (ip), vehicle: saline with Tween-80) 90 % of control; (endpoint: median survival time, dose: 50.0 mg/kg/injection, schedule: Q01DX009 (ip), vehicle: saline with Tween-80) 98 % of control; (endpoint: median survival time, dose: 100.0 mg/kg/injection, schedule: Q01DX009 (ip), vehicle: saline with Tween-80) 92 % of control; (endpoint: median survival time, dose: 200.0 mg/kg/injection, schedule: Q01DX009 (ip), vehicle: saline with Tween-80) 94 % of control; (endpoint: median survival time, dose: 400.0 mg/kg/injection, schedule: Q01DX009 (ip), vehicle: saline with Tween-80) 90 % of control.
Take `COc1c(C2OC(CO)C(O)C2O)nn(C)c1C(N)=O` (stereo not drawn): the T/C (endpoint: median survival time, dose: 48.5 mg/kg/injection, schedule: Q01DX005 (ip), vehicle: saline) is 100 % of control; the T/C (endpoint: median survival time, dose: 97.0 mg/kg/injection, schedule: Q01DX005 (ip), vehicle: saline) is 102 % of control; the T/C (endpoint: median survival time, dose: 193.9 mg/kg/injection, schedule: Q01DX005 (ip), vehicle: saline) was 100 % of control.
Take `O=C1NC(=O)C2=C1C1(Cl)C(Cl)=C(Cl)C2(Cl)C1(Cl)Cl`: the T/C under setting [4] was 103 % of control, the T/C under setting [6] was 101 % of control and the T/C under setting [8] was 103 % of control.
In the case of `c1ccc(CCNc2ncnc3nc[nH]c23)cc1`, the T/C is 94 % of control (endpoint: mean survival time, dose: 6.25 mg/kg/injection, schedule: Q01DX005 (ip), vehicle: water); 96 % of control (endpoint: mean survival time, dose: 12.5 mg/kg/injection, schedule: Q01DX005 (ip), vehicle: water); 96 % of control (endpoint: mean survival time, dose: 25.0 mg/kg/injection, schedule: Q01DX005 (ip), vehicle: water); 97 % of control (endpoint: mean survival time, dose: 50.0 mg/kg/injection, schedule: Q01DX005 (ip), vehicle: water); 92 % of control (endpoint: mean survival time, dose: 100.0 mg/kg/injection, schedule: Q01DX005 (ip), vehicle: water); 111 % of control (endpoint: mean survival time, dose: 200.0 mg/kg/injection, schedule: Q01DX005 (ip), vehicle: water).
In the case of `C=CCc1cc(O)c(CC=C)cc1O`, the T/C runs as follows: (endpoint: mean survival time, dose: 100.0 mg/kg/injection, schedule: Q04DX002 (ip), vehicle: saline with Tween-80) 95 % of control; (endpoint: mean survival time, dose: 200.0 mg/kg/injection, schedule: Q04DX002 (ip), vehicle: saline with Tween-80) 95 % of control.
For the molecule `CCCCNC(=O)NCCc1ccc(OC)c(OC)c1`, the T/C by setting is: under setting [3], 87 % of control; under setting [5], 89 % of control.
Turning to `CCCP(=O)(CCC)CCC`, the T/C was 94 % of control (endpoint: mean survival time, dose: 25.0 mg/kg/injection, schedule: Q01DX001 (ip), vehicle: saline with Tween-80); 96 % of control (endpoint: mean survival time, dose: 50.0 mg/kg/injection, schedule: Q01DX001 (ip), vehicle: saline with Tween-80); 94 % of control (endpoint: mean survival time, dose: 100.0 mg/kg/injection, schedule: Q01DX001 (ip), vehicle: saline with Tween-80).

Values taken from PubChem BioAssay AID256 (DTP/NCI, 2004).
